Common to all, as to type: cell-based, human
One test relates to NCI-H322M. In words: NCI60 one-dose screen, NCI-H322M. The conditions noted are these: NCI-H322M (Non-Small Cell Lung Cancer); NCI 60 one-dose, 10^-5 M. As for the experimental part: (§1) Anti-cancer activity screening of all compounds was performed by the NCI Developmental Therapeutics Program (DTP) through their NCI60 screening initiative. Assay details can be found at the website dtp.cancer.gov/discovery_development/nci-60/methodology.htm. Information from this website is reproduced here for convenience.
(§2) As of early 2007 all compounds submitted to the NCI 60 Cell screen are tested initially at a single high dose (10^-5 M) in the full NCI 60 cell panel. Only compounds which satisfy pre-determined threshold inhibition criteria in a minimum number of cell lines will progress to the full 5-dose assay. The threshold inhibition criteria for progression to the 5-dose screen was selected to efficiently capture compounds with anti-proliferative activity based on careful analysis of historical DTP screening data. The threshold criteria may be updated as additional data becomes available.
(§3) The One-dose data will be reported as a mean graph of the percent growth of treated cells and will be similar in appearance to mean graphs from the 5-dose assay. […]
(§4) Following drug addition, the plates are incubated for an additional 48 h at 37° C., 5% CO2, 95% air, and 100% relative humidity. […] Bound stain is subsequently solubilized with 10 mM trizma base, and the absorbance is read on an automated plate reader at a wavelength of 515 nm. […]

A further test relates to SK-MEL-5. In words: NCI60 one-dose screen, SK-MEL-5. The settings on record: SK-MEL-5 (Melanoma); NCI 60 one-dose, 10^-5 M. On the procedure:
as §1, §2, §3, §4

The test system of the next test is UACC-62. In words: NCI60 one-dose screen, UACC-62. The conditions noted are these: UACC-62 (Melanoma); NCI 60 one-dose, 10^-5 M. As for the experimental part:
as §1, §2, §3, §4

A further test has as its system OVCAR-4. Nature of the test: NCI60 one-dose screen, OVCAR-4. The settings on record: OVCAR-4 (Ovarian Cancer); NCI 60 one-dose, 10^-5 M. As for the experimental part: as §1, §2, §3, §4
In the next test the test system is NCI/ADR-RES. In words: NCI60 one-dose screen, NCI/ADR-RES. The conditions noted are these: NCI/ADR-RES (Ovarian Cancer); NCI 60 one-dose, 10^-5 M. As for the experimental part: as §1, §2, §3, §4
The subject of another test is T-47D. Nature of the test: NCI60 one-dose screen, T-47D. The conditions noted are these: T-47D (Breast Cancer); NCI 60 one-dose, 10^-5 M. On the procedure: as §1, §2, §3, §4

On to `CC(=O)N1c2ccccc2NC2=C(C(=O)N(C)C2(C)C)C1c1ccccc1` (stereo not drawn) [NUCC-60872], for which the “Growth Percent” value in the test on NCI-H322M is reported as 73.36%; with SK-MEL-5, 27.50%; in the test on UACC-62, 32.33%; in the test with OVCAR-4, 55.16%; with NCI/ADR-RES, 101.74%; with T-47D it was 28.72%.

As for `CC(=O)N1c2ccccc2NC2=C(C(=O)N(Cc3ccccc3)C2(C)C)C1c1ccco1` (stereo not drawn) [NUCC-608455], the “Growth Percent” value in the test on NCI-H322M was 44.61%; with SK-MEL-5, 7.88%; in the test with UACC-62, 21.25%; in the test with OVCAR-4, 48.83%; with NCI/ADR-RES, 82.92%; in the test with T-47D, 35.10%.

For the origin of these results see US12252492B2, “Substituted fused pyrrolo-diazepinones and uses thereof” (Northwestern University, priority 2018, dated 2025).
